In the NIST ThermoML archive (doi:10.1016/j.jct.2016.01.026):
± gives the expanded uncertainty stated by the source.

Assay: osmotic coefficient (dimensionless); mn = molality of the nth substance listed, in mol/kg
Conditions: 323.15 K, 100 kPa, Liquid, Knauer K-7000 vapor pressure osmometer (VPO)

CCC[N+]1(C)CCCCC1.O=S(=O)([O-])C(F)(F)F [1-methyl-1-propylpiperidinium triflate] + CC(C)O
Conditions | osmotic coefficient
m1 = 0.0801 | 0.897 ± 0.013
m1 = 0.1937 | 0.743 ± 0.015
m1 = 0.3155 | 0.645 ± 0.017
m1 = 0.4021 | 0.587 ± 0.019
m1 = 0.5062 | 0.545 ± 0.02
m1 = 0.5964 | 0.516 ± 0.021
m1 = 0.7001 | 0.491 ± 0.022
m1 = 0.7943 | 0.466 ± 0.022
m1 = 0.9894 | 0.443 ± 0.023
m1 = 1.268 | 0.422 ± 0.024

CCC[N+]1(C)CCCCC1.O=S(=O)([O-])C(F)(F)F [1-methyl-1-propylpiperidinium triflate] + CCC(C)O
Conditions | osmotic coefficient
m1 = 0.0525 | 0.851 ± 0.015
m1 = 0.081 | 0.769 ± 0.016
m1 = 0.0996 | 0.701 ± 0.017
m1 = 0.1561 | 0.608 ± 0.019
m1 = 0.1983 | 0.572 ± 0.019
m1 = 0.2451 | 0.528 ± 0.021
m1 = 0.304 | 0.498 ± 0.021
m1 = 0.3569 | 0.477 ± 0.022
m1 = 0.4029 | 0.457 ± 0.023
m1 = 0.498 | 0.432 ± 0.023
m1 = 0.5936 | 0.419 ± 0.024
m1 = 0.7108 | 0.405 ± 0.024

CCC[N+]1(C)CCCCC1.O=S(=O)([O-])C(F)(F)F [1-methyl-1-propylpiperidinium triflate] + CCCCCO
Conditions | osmotic coefficient
m1 = 0.0415 | 0.757 ± 0.023
m1 = 0.0616 | 0.593 ± 0.022
m1 = 0.0823 | 0.542 ± 0.021
m1 = 0.1025 | 0.521 ± 0.021
m1 = 0.1211 | 0.502 ± 0.021
m1 = 0.1427 | 0.48 ± 0.022
m1 = 0.1632 | 0.472 ± 0.022
m1 = 0.1816 | 0.465 ± 0.022
m1 = 0.2018 | 0.451 ± 0.023
m1 = 0.2209 | 0.441 ± 0.023
m1 = 0.2407 | 0.431 ± 0.023
m1 = 0.2643 | 0.418 ± 0.024

CCC[N+]1(C)CCCCC1.O=S(=O)([O-])C(F)(F)F [1-methyl-1-propylpiperidinium triflate] + CCCCO
Conditions | osmotic coefficient
m1 = 0.053 | 0.781 ± 0.016
m1 = 0.0791 | 0.706 ± 0.017
m1 = 0.0996 | 0.657 ± 0.017
m1 = 0.1455 | 0.604 ± 0.019
m1 = 0.2006 | 0.559 ± 0.02
m1 = 0.25 | 0.519 ± 0.021
m1 = 0.3019 | 0.491 ± 0.022
m1 = 0.355 | 0.467 ± 0.022
m1 = 0.4011 | 0.453 ± 0.023
m1 = 0.4998 | 0.417 ± 0.024
m1 = 0.5953 | 0.403 ± 0.024
m1 = 0.7001 | 0.387 ± 0.025
m1 = 0.78 | 0.379 ± 0.025

CCC[N+]1(C)CCCCC1.O=S(=O)([O-])C(F)(F)F [1-methyl-1-propylpiperidinium triflate] + CCCO
Conditions | osmotic coefficient
m1 = 0.0866 | 0.825 ± 0.015
m1 = 0.1046 | 0.769 ± 0.016
m1 = 0.1966 | 0.661 ± 0.017
m1 = 0.2936 | 0.585 ± 0.019
m1 = 0.3928 | 0.521 ± 0.021
m1 = 0.5005 | 0.483 ± 0.022
m1 = 0.6023 | 0.468 ± 0.022
m1 = 0.7009 | 0.452 ± 0.023
m1 = 0.8047 | 0.438 ± 0.023
m1 = 1.008 | 0.418 ± 0.024
m1 = 1.195 | 0.398 ± 0.024
m1 = 1.422 | 0.379 ± 0.025
